Our source for the T/C values is PubChem BioAssay AID298 (DTP/NCI, 2004).

Values joined by “and” are separate entries in the source; they are usually repeats but may differ in a detail not shown here. Identical values can stand only once. Inconclusive results are not listed.

The experiment concerns MX-1 breast xenograft, intrarenal, nude mice, tumor weight. Nature of the experiment: NCI In Vivo Anticancer Drug Screen. Data for tumor model Human Mammary Carcinoma MX-1 Xenograft (intrarenal inoculation) in NU/NU BALB/C (nude) mice. As to conditions: endpoint: mean tumor weight change, higher = larger tumour. Summed up:
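Mice w/ transplanted tumors, drug vs vehicle; endpoint survival or tumor size; value = T/C.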

Setting [1] is: dose: 150.0 mg/kg/injection, schedule: Q04DX003 (ip), vehicle: saline with Tween-80.

Consider `CCC1OC(OC)C=CC1=O` (centres undefined), for which the T/C runs as follows: (dose: 18.75 mg/kg/injection, schedule: Q04DX003 (sc), vehicle: saline) 112 % of control; (dose: 37.5 mg/kg/injection, schedule: Q04DX003 (sc), vehicle: saline) 63 % of control; (dose: 75.0 mg/kg/injection, schedule: Q04DX003 (sc), vehicle: saline) 98 % of control.

In the case of `CCOC(=O)C1=C(C)O/C(=C/c2cccc(Cl)c2)C1=O`, under setting [1], the T/C is 62 % of control.

`O=C(CCCN1CCC(C(O)c2ccc(F)cc2)CC1)c1ccc(F)cc1` (centres undefined): the T/C is, setting by setting: (dose: 25.0 mg/kg/injection, schedule: Q04DX003 (ip), vehicle: saline with Tween-80) 90 % of control; (dose: 50.0 mg/kg/injection, schedule: Q04DX003 (ip), vehicle: saline with Tween-80) 83 % of control.

Take `CNC=O`: the T/C is 47 % of control (dose: 100.0 mg/kg/injection, schedule: Q01DX010 (sc), vehicle: saline) and 10 % of control (dose: 200.0 mg/kg/injection, schedule: Q01DX010 (sc), vehicle: saline).

For the compound `CC1OC(O[C@H]2/C=C/C=C/C=C/C=C/C=C/C=C/C=C/[C@H](C)[C@@H](O)[C@@H](C)[C@H](C)OC(=O)C[C@H](O)C[C@H](O)CC[C@@H](O)[C@H](O)C[C@H](O)C[C@]3(O)C[C@H](O)[C@@H](C(=O)O)[C@H](C2)O3)C(O)C(N)C1O` (some centres undefined), the T/C by setting is: (dose: 12.5 mg/kg/injection, schedule: Q04DX003 (ip), vehicle: suspension in saline) 61 % of control; (dose: 25.0 mg/kg/injection, schedule: Q04DX003 (ip), vehicle: suspension in saline) 57 % of control; (dose: 50.0 mg/kg/injection, schedule: Q04DX003 (ip), vehicle: suspension in saline) 77 % of control; (dose: 100.0 mg/kg/injection, schedule: Q04DX003 (ip), vehicle: suspension in saline) 84 % of control and 89 % of control; (dose: 200.0 mg/kg/injection, schedule: Q04DX003 (ip), vehicle: suspension in saline) 73 % of control; (dose: 400.0 mg/kg/injection, schedule: Q04DX003 (ip), vehicle: suspension in saline) 79 % of control.

In the case of `NC(=S=O)C(N)=S=O`, the T/C reads like this: (dose: 125.0 mg/kg/injection, schedule: Q04DX003 (ip), vehicle: saline with Tween-80) 42 % of control; (dose: 250.0 mg/kg/injection, schedule: Q04DX003 (ip), vehicle: saline with Tween-80) 65 % of control; (dose: 500.0 mg/kg/injection, schedule: Q04DX003 (ip), vehicle: saline with Tween-80) 60 % of control.

Turning to `C=Cc1cc(OC)c2c(c1)c(=O)oc1c2cc(OC)c2c(O)ccc(C3OC(C)C(O)C(C)(O)C3O)c21` (centres undefined), the T/C was 95 % of control (dose: 37.5 mg/kg/injection, schedule: Q04DX003 (ip), vehicle: DMSO); 86 % of control (dose: 75.0 mg/kg/injection, schedule: Q04DX003 (ip), vehicle: DMSO); 79 % of control (dose: 150.0 mg/kg/injection, schedule: Q04DX003 (ip), vehicle: DMSO); 64 % of control (dose: 300.0 mg/kg/injection, schedule: Q04DX003 (ip), vehicle: DMSO).

With `COc1cc2c(c3c1c(=O)c1cccc(F)c1n3C)C=CC(C)(C)O2`, the T/C (dose: 75.0 mg/kg/injection, schedule: Q04DX003 (ip), vehicle: Klucel (hydroxypropylcellulose) (HPC)) was 46 % of control.

Regarding `N#CCS(=O)(=O)c1cccc[n+]1[O-]`, the T/C runs as follows: under setting [1], 77 % of control; (dose: 300.0 mg/kg/injection, schedule: Q04DX003 (ip), vehicle: saline with Tween-80) 67 % of control.
